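Tested at 5 concentrations; 48 h exposure; 96-well plates; endpoints linearly interpolated, else capped at highest concentration. GI50 = concentration required for 50% inhibition of growth. At the TGI there is no net growth.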
What was measured:
Experiment in all cases: DTP human tumour cell line panel, 48 h
[1] = tested on: A549 NSCLC
[2] = tested on: CCRF-CEM leukemia
[3] = tested on: HOP-92 NSCLC
[4] = tested on: MDA-MB-435
[5] = tested on: NCI-H226 lung
[6] = tested on: OVCAR-5 ovarian
[7] = tested on: OVCAR-8 ovarian
[8] = tested on: SW-620 colon
[9] = tested on: UACC-257 melanoma

Row | SMILES | TGI [1] | TGI [2] | TGI [3] | TGI [4] | TGI [5] | TGI [6] | TGI [7] | TGI [8] | TGI [9] | GI50 [1] | GI50 [2] | GI50 [3] | GI50 [4] | GI50 [5] | GI50 [7] | GI50 [8] | GI50 [9]
1 | O=C(O)c1c(CC(Cc2ccc3c(c2)CCC3)C(=O)O)ccc2c1CCC2 (stereo not given) | > 100 µM | > 100 µM | > 100 µM | > 100 µM | > 100 µM | > 100 µM | > 100 µM | > 100 µM | > 100 µM | – | – | – | – | – | – | – | –
2 | O=C(O)C(Cc1ccccc1)NCc1c(O)ccc2c(-c3ccccc3)cc(=O)oc12 (stereo not given) | > 100 µM | > 100 µM | > 100 µM | > 100 µM | > 100 µM | > 100 µM | > 100 µM | > 100 µM | > 100 µM | – | – | – | – | – | – | – | –
3 | O=P1(N(CCCl)CCCl)Oc2ccc(Cl)cc2C(C(Cl)(Cl)Cl)c2cc(Cl)ccc2O1 (stereo not given) | > 100 µM | > 100 µM | 40.4 µM | 71.8 µM | 50.9 µM | > 100 µM | > 100 µM | > 100 µM | > 100 µM | – | – | – | – | – | – | – | –
4 | COc1cc(CCNC2=CC(=O)c3nc[nH]c3C2=O)ccc1O | 68.3 µM | > 100 µM | 73.3 µM | 31.4 µM | 86.8 µM | 35.8 µM | 47.6 µM | 58.6 µM | 34.8 µM | – | – | – | – | – | – | – | –
5 | COc1ccc(N2C(=O)C3c4[nH]c5c(C)cccc5c4C4CCC(C(C)C)CC4C3C2=O)cc1 (stereo not given) | > 100 µM | – | 34.4 µM | 23.3 µM | 36.1 µM | 29.7 µM | 42.9 µM | 45.7 µM | > 100 µM | – | – | – | – | – | – | – | –
6 | C=C(Br)CN=CN(C)C | > 100 µM | > 100 µM | > 100 µM | > 100 µM | > 100 µM | > 100 µM | > 100 µM | – | > 100 µM | – | – | – | – | – | – | – | –
7 | COc1ccc(CCNC(=O)Cc2ccccc2CO)cc1OC | > 100 µM | > 100 µM | > 100 µM | > 100 µM | > 100 µM | > 100 µM | > 100 µM | > 100 µM | > 100 µM | – | – | – | – | – | – | – | –
8 | CC1=C(C)C(=O)C(C2=CC(=O)c3ccccc3C2=O)=C(C2=CC(=O)c3ccccc3C2=O)C1=O | > 100 µM | – | > 83.3 µM | 1.19 µM | 49.5 µM | > 100 µM | > 62.3 µM | > 33.9 µM | 28.6 µM | – | – | – | – | – | – | – | –
9 | CCOC(=O)c1cc(-c2ccc(OC)cc2)c([N+](=O)[O-])[nH]1 | > 10 µM | > 10 µM | > 10 µM | > 10 µM | > 10 µM | > 10 µM | > 10 µM | > 10 µM | > 10 µM | – | – | – | – | – | – | – | –
10 | O=C(Nc1ccccc1)N1CCN(C(=O)Nc2ccccc2)C1=S | > 100 µM | > 100 µM | 63.5 µM | > 100 µM | 70.5 µM | – | > 100 µM | > 100 µM | > 100 µM | – | – | – | – | – | – | – | –
11 | Clc1ccc2c(c1)N(CCCN1CCCC13CCCCC3)c1ccccc1S2 | 40.2 µM | 28.3 µM | 38.2 µM | 27.4 µM | > 86.5 µM | 36.3 µM | 42.6 µM | 40.7 µM | 24.4 µM | – | – | – | – | – | – | – | –
12 | O=CCCCCCOCc1ccccc1 | > 100 µM | > 69.9 µM | > 100 µM | > 100 µM | > 100 µM | > 100 µM | > 100 µM | > 100 µM | > 100 µM | – | – | – | – | – | – | – | –
13 | CCC1(c2ccc(N3C(=O)c4cccc5cc([N+](=O)[O-])cc(c45)C3=O)cc2)CCC(=O)NC1=O (stereo not given) | > 100 µM | 35 µM | 8.8 µM | > 100 µM | 29 µM | > 100 µM | 28 µM | > 100 µM | > 100 µM | – | – | – | – | – | – | – | –
14 | CCc1nc(N)c2nc(-c3cccs3)oc2n1 | > 100 µM | > 100 µM | > 100 µM | > 100 µM | > 100 µM | > 100 µM | > 100 µM | > 100 µM | > 100 µM | – | – | – | – | – | – | – | –
15 | Oc1ccc(C(O)C2CCCCN2)cc1O (stereo not given) | > 100 µM | – | > 100 µM | > 100 µM | > 100 µM | > 100 µM | > 100 µM | > 100 µM | > 100 µM | – | – | – | – | – | – | – | –
16 | Cc1cn(CCCCCCOC(=O)NC(CCCNC(N)=O)C(=O)O)c(=O)[nH]c1=O (stereo not given) | > 100 µM | > 100 µM | > 100 µM | > 100 µM | > 100 µM | > 100 µM | > 100 µM | > 100 µM | > 100 µM | – | – | – | – | – | – | – | –
17 | CCOC(=O)NC(=S)N(CC(=O)c1cc(OC)c(OC)c(OC)c1)c1ccc(Cl)cc1 | > 100 µM | > 100 µM | > 100 µM | > 100 µM | > 100 µM | – | > 100 µM | > 100 µM | > 100 µM | 59.6 µM | 71.4 µM | 38.9 µM | > 100 µM | > 100 µM | > 100 µM | > 100 µM | 25.1 µM
18 | COC(=O)c1sc(=O)sc1SCc1cccc(CSc2sc(=O)sc2C(=O)OC)c1 | > 100 µM | > 100 µM | 95.6 µM | > 100 µM | > 100 µM | > 100 µM | > 100 µM | > 100 µM | > 100 µM | – | – | – | – | – | – | – | –
19 | CC(=O)CC1(CBr)Nc2ccc([N+](=O)[O-])cc2NC1=O (stereo not given) | > 100 µM | > 100 µM | > 100 µM | > 100 µM | > 100 µM | > 100 µM | > 100 µM | > 100 µM | > 100 µM | – | – | – | – | – | – | – | –
20 | O=C1NC(O)c2cc3ccccc3cc2O1 (stereo not given) | > 100 µM | > 100 µM | 90.7 µM | > 100 µM | > 100 µM | > 100 µM | > 100 µM | > 100 µM | > 100 µM | – | – | – | – | – | – | – | –
21 | COP(=O)(OC)OCN(C)CC/C=C(\C)CC/C=C(\C)CCC=C(C)C | 40.9 µM | 51.9 µM | 34.8 µM | 40.2 µM | 34.6 µM | 39.1 µM | 29.5 µM | 30.4 µM | 19.2 µM | – | – | – | – | – | – | – | –
22 | CC(C)(C)C(=O)Nc1c(C=O)ccc2[nH]cnc12 | > 100 µM | > 100 µM | > 100 µM | > 100 µM | > 100 µM | > 100 µM | > 100 µM | > 100 µM | > 100 µM | – | – | – | – | – | – | – | –
